In PubChem BioAssay (NCI) one finds TGI and GI50 data, which are given here for 32 compounds.

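Cultured in 96-well plates, cells were exposed to test compound for 48 hours across five concentrations. Here, GI50 denotes the concentration required for 50% inhibition of growth. Definition used: TGI = concentration required for complete inhibition of growth.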 Where a SMILES comes first, the peptide text is derived from it. The star is where a group is joined. Boc = CC(C)(C)OC(=O)*

One experiment concerns U251 CNS. Put plainly: NCI-60 cell line screen, 48 h.
For the compound `CS(=O)(=O)OCCn1c(=O)n(CCOS(C)(=O)=O)c(=O)n(CCOS(C)(=O)=O)c1=O`, the TGI is greater than 100 µM.

On to `c1ccc2c(c1)NC(C1OC3CCCN3C1C1Nc3ccccc3S1)S2` (stereo not drawn), for which the TGI is greater than 100 µM.

`CC(C)(C)NC(=O)/C(=C\Sc1ccccc1)c1ccc2c(c1)OCO2` yielded a TGI of 98.6 µM.

Take `COc1nc(C#CCC(C)O)nc(OC)n1` (stereo not drawn): the TGI stood at 76.9 µM.

Turning to `O=C1C[C@H](Sc2ccccc2)C2(OCCO2)[C@@H](Sc2ccccc2)C1`, the TGI is 6.76 µM.

On to `Cc1c2c(n(CCc3ccc(Cl)cc3)c1C)NN=C(C#N)S2(=O)=O`, for which the TGI is greater than 100 µM.

Take `CCN(C(=S)N[C@@H](Cc1ccccc1)C(=O)N[C@@H](CC(C)C)C(=O)OC)c1ccccc1`: the TGI is greater than 100 µM.

`N#CCCN(CCC#N)c1ccc(/C=C2\N=C(c3ccccc3)N(c3ccc(Cl)cc3)C2=O)cc1` displayed a TGI greater than 100 µM.

`Cc1c(S(=O)(=O)/N=C(\N)Nc2ccc(Cl)cc2)sc2ccc(Cl)cc12`: the TGI stood at 30.3 µM.

With `CC12CC(=O)C3C(C(=O)C1)C32C` (stereo not drawn), the TGI is greater than 100 µM.

Turning to `COc1cc([N+](=O)[O-])c(OC)cc1-c1nc2sc(Cl)cn2c1/C=N/Nc1ccccn1`, the GI50 was 7.65 µM and the TGI was found to be 14.3 µM.

As for `CC(=O)N/N=C1\NC(=O)C[C@H]2[C@@H]3CC=C4C[C@@H](OC(C)=O)CC[C@]4(C)[C@H]3CC[C@]12C`, the TGI amounted to 28.7 µM.

Consider `O=C1CN2C(c3ccccc3)=NN(c3ccc([N+](=O)[O-])cc3)C2(c2ccccc2)c2cc(Cl)ccc2N1CC1CC1` (stereo not drawn), for which the TGI was greater than 100 µM.

As for `COc1ccc2nc3cc(Cl)ccc3c(NCCCNCCCNc3c4ccc(Cl)cc4nc4ccc(OC)cc34)c2c1`, the TGI came to 0.13 µM.

In turn, `c1ccc2sc(SCSc3nc4ccccc4s3)nc2c1` yielded a TGI greater than 100 µM.

Consider `O=c1oc(-c2ccc(O)c(O)c2)cc2cccc(O)c12`, for which the GI50 was 17.1 µM and the TGI was found to be 79.1 µM.

Regarding `COc1cc2c(cc1-c1c(C)noc1C)cc(C)c(=O)n2Cc1ccccn1`, the GI50 was 4.43 µM and the TGI was greater than 100 µM.

In turn, `CCOC(=O)c1c(-c2ccc(OC)cc2)c(C#N)c(=S)n(C2OC(COC(C)=O)C(OC(C)=O)C(OC(C)=O)C2OC(C)=O)c1C` (stereo not drawn) yielded a TGI greater than 100 µM.

`O=C(CCCN1CCC2(CC1)CC(=O)N(N1CCOCC1)C2=O)c1ccccc1` had a TGI greater than 100 µM.

Take `O=[N+]([O-])/C(C(Cl)=C(Cl)Cl)=C(\Nc1cccc2cccnc12)SCc1ccccc1`: the TGI was 33.2 µM.

With `CCOC(=N)n1c(=O)n(C2=NCCN2)c2ccccc21`, the TGI was greater than 100 µM.

Compound `O=C(NCCN1CCOCC1)c1ccc2cc(C(=O)N3CC(CCl)c4ccc([N+](=O)[O-])cc43)[nH]c2c1` (stereo not drawn) showed a TGI of 57.8 µM.

`CSc1cc(Cl)c(C)cc1S(=O)(=O)NC(=O)NNc1ccc(Cl)cc1` displayed a TGI greater than 100 µM.

`O=C(CNc1ccccc1Cl)Nn1c(-c2ccccc2)nc2ccccc2c1=O` showed a TGI of 33 µM.

Consider `C/C=C/C=C/c1nc(C#N)c(N)o1`, for which the TGI was greater than 100 µM.

Consider `O=c1c2ccccc2nc2[nH][nH]c(=S)n12`, for which the TGI is greater than 100 µM.

On to `CC(C)(C)OC(=O)NCC(=O)NCC(=O)NCC(=O)NCC(=O)O` (Boc-GGGG-OH), for which the TGI is greater than 100 µM.

As for `COc1ccc(CC(O)CN2CCOCC2)cc1` (stereo not drawn), the TGI was greater than 100 µM.

`COc1cc(C2SCC(=O)N2c2ccc(NC(=O)c3ccc(N4C(=O)CSC4c4cc(OC)c(OC)c(OC)c4)cc3)cc2)cc(OC)c1OC` (stereo not drawn) came in with a TGI greater than 100 µM.

Compound `N#C/C(=C\c1cc(Br)c(O)c(Br)c1)c1cccnc1` yielded a TGI of 35.6 µM.

For another experiment, the system named is MDA-N. Put plainly: NCI-60 cell line screen, 48 h.
For `CS(=O)(=O)OCCn1c(=O)n(CCOS(C)(=O)=O)c(=O)n(CCOS(C)(=O)=O)c1=O`, the TGI was greater than 100 µM.

The compound `CC(C)(C)NC(=O)/C(=C\Sc1ccccc1)c1ccc2c(c1)OCO2` showed a TGI of 59.8 µM.

`COc1nc(C#CCC(C)O)nc(OC)n1` (stereo not drawn): the TGI is greater than 100 µM.

Regarding `O=C1C[C@H](Sc2ccccc2)C2(OCCO2)[C@@H](Sc2ccccc2)C1`, the TGI came out at 6.83 µM.

`Cc1c2c(n(CCc3ccc(Cl)cc3)c1C)NN=C(C#N)S2(=O)=O` registered a TGI greater than 100 µM.

Compound `CCN(C(=S)N[C@@H](Cc1ccccc1)C(=O)N[C@@H](CC(C)C)C(=O)OC)c1ccccc1` registered a TGI greater than 100 µM.

Turning to `N#CCCN(CCC#N)c1ccc(/C=C2\N=C(c3ccccc3)N(c3ccc(Cl)cc3)C2=O)cc1`, the TGI is greater than 100 µM.

`Cc1c(S(=O)(=O)/N=C(\N)Nc2ccc(Cl)cc2)sc2ccc(Cl)cc12` gave a TGI of 47.1 µM.

`CC12CC(=O)C3C(C(=O)C1)C32C` (stereo not drawn) came in with a TGI greater than 100 µM.

Regarding `CC(=O)N/N=C1\NC(=O)C[C@H]2[C@@H]3CC=C4C[C@@H](OC(C)=O)CC[C@]4(C)[C@H]3CC[C@]12C`, the TGI was greater than 100 µM.

Compound `COc1ccc2nc3cc(Cl)ccc3c(NCCCNCCCNc3c4ccc(Cl)cc4nc4ccc(OC)cc34)c2c1` displayed a TGI of 0.173 µM.

With `c1ccc2sc(SCSc3nc4ccccc4s3)nc2c1`, the TGI is greater than 100 µM.

`CCOC(=O)c1c(-c2ccc(OC)cc2)c(C#N)c(=S)n(C2OC(COC(C)=O)C(OC(C)=O)C(OC(C)=O)C2OC(C)=O)c1C` (stereo not drawn) yielded a TGI greater than 100 µM.

The compound `O=C(CCCN1CCC2(CC1)CC(=O)N(N1CCOCC1)C2=O)c1ccccc1` registered a TGI greater than 100 µM.

In the case of `O=[N+]([O-])/C(C(Cl)=C(Cl)Cl)=C(\Nc1cccc2cccnc12)SCc1ccccc1`, the TGI was greater than 100 µM.

`CCOC(=N)n1c(=O)n(C2=NCCN2)c2ccccc21` had a TGI greater than 100 µM.

In the case of `CSc1cc(Cl)c(C)cc1S(=O)(=O)NC(=O)NNc1ccc(Cl)cc1`, the TGI was greater than 100 µM.

In turn, `Cc1cc2[nH]c3[nH]c(=O)[nH]c(=O)c3c2cc1C` came in with a TGI greater than 100 µM.

`C/C=C/C=C/c1nc(C#N)c(N)o1` had a TGI greater than 100 µM.

Compound `O=c1c2ccccc2nc2[nH][nH]c(=S)n12` displayed a TGI greater than 100 µM.

The compound `COc1ccc(CC(O)CN2CCOCC2)cc1` (stereo not drawn) gave a TGI greater than 100 µM.

As to `COc1cc(C2SCC(=O)N2c2ccc(NC(=O)c3ccc(N4C(=O)CSC4c4cc(OC)c(OC)c(OC)c4)cc3)cc2)cc(OC)c1OC` (stereo not drawn), the TGI turned out to be 64 µM.

The compound `N#C/C(=C\c1cc(Br)c(O)c(Br)c1)c1cccnc1` gave a TGI greater than 100 µM.

For another experiment, the system named is NCI-H522 lung. Put plainly: NCI-60 cell line screen, 48 h.
In turn, `c1ccc2c(c1)NC(C1OC3CCCN3C1C1Nc3ccccc3S1)S2` (stereo not drawn) yielded a TGI greater than 100 µM.

In turn, `CC(C)(C)NC(=O)/C(=C\Sc1ccccc1)c1ccc2c(c1)OCO2` registered a TGI of 43.3 µM.

In turn, `COc1nc(C#CCC(C)O)nc(OC)n1` (stereo not drawn) yielded a TGI of 34 µM.

With `O=C1C[C@H](Sc2ccccc2)C2(OCCO2)[C@@H](Sc2ccccc2)C1`, the TGI is 1.81 µM.

Turning to `CCN(C(=S)N[C@@H](Cc1ccccc1)C(=O)N[C@@H](CC(C)C)C(=O)OC)c1ccccc1`, the TGI is greater than 100 µM.

As to `COc1ccc2cc(-c3ccc(-c4ccc(C(=N)N)s4)s3)ccc2c1`, the GI50 was 1.92 µM and the TGI stood at 4.57 µM.
